The values below come from US20220305137A1, “DRUG CONTAINING TARGETING LIPOSOMES” (NEXTAR CHEMPHARMA SOLUTIONS LTD., priority 2019, published 2022).

This series is described as follows: Doxorubicin brain concentration after intravenous administration, LC-MS/MS. The note with it: mice, 7.5 mg/kg intravenous. The procedure:
A study was performed to determine doxorubicin distribution after administration, when comparing three doxorubicin-containing compositions, each administered to a group of 10 male ICR mice aged 7 weeks. Composition 1 was free doxorubicin.
Animals were administered doxorubicin in the following amount per administration, for each of the three compositions. Composition 1, was administered in HEPES solution at a dose of 7.5 mg/kg, in a volume of 100 microliter (μl) via the intravenous route. Compositions 2 and 3 were each administered at a dose of 15 mg/kg (equivalent of doxorubicin) in a volume of 300 μl via the intravenous route.
Five mice in each group were sacrificed one hour post administration, and five mice four hours post administration, and doxorubicin brain concentrations were determined using an LC-MS/MS method.

For the compound `COc1cccc2c1C(=O)c1c(O)c3c(c(O)c1C2=O)C[C@@](O)(C(=O)CO)C[C@@H]3O[C@H]1C[C@H](N)[C@H](O)[C@H](C)O1` [Composition 1, doxorubicin], the doxorubicin brain concentration result (60 minutes post administration) is “low brain concentration” and the doxorubicin brain concentration result (240 minutes post administration) is reported as “low brain concentration”.
